Test results from patent US20250243196A1, “CITRON KINASE INHIBITORS” (The Cleveland Clinic Foundation, priority 2021, published 2025).

What was measured:
Assay type in all cases: biochemical
IKKβ = IKKβ (Homo sapiens (Human), UniProt O14920); test: KinaseProfiler radiometric assay (14-485KP); details: mean of at least two independent experiments
Source text: In another aspect, disclosed is a method of inhibiting citron kinase in a sample, comprising contacting the sample with a compound described herein (e.g., a compound of formula (I) or a pharmaceutically acceptable salt thereof), or a pharmaceutical composition described herein (e.g., a pharmaceutical composition comprising a compound of formula (I) or a pharmaceutically acceptable salt thereof), in an amount effective to inhibit citron kinase. In some embodiments, the step of contacting the sample with the compound comprises administering the compound to a subject (e.g., a subject) suffering from cancer. Methods of determining kinase inhibition are well known in the art. For example, kinase activity of an enzyme and the inhibitory capacity of a test compound can be determined by measuring enzyme specific phosphorylation of a substrate. Commercial assays and kits can be employed. For example, kinase inhibition can be determined using a radiometric binding assay, such as using KinaseProfiler™ technology (Eurofins Discovery). This assay method directly detects product formation without the use of modified substrates or coupling enzymes. Test compounds are incubated with kinase, substrate, required cofactors and radioisotope labeled ATP. Following incubation, unreacted radioactive ATP is removed by washing and incorporation of the radiolabeled phosphate into the kinase substrate is assayed to detect phosphoryltransferase activity, which is directly proportional to the amount of phosphorylated substrate. Inhibition of the kinase by a kinase inhibitor prevents phosphorylation of the substrate and thereby limits the incorporation of radiolabeled phosphate. Such an assay is compatible with a microwell assay format, allowing simultaneous determination of IC50 of multiple compounds.
The effect of various compounds on the inhibition of other kinases has also been determined. Table 2 reports measured IC50 values; value units are nanomolar inhibition.

ALK1(h) = ALK1(h) (Homo sapiens (Human), UniProt P37023); test: KinaseProfiler panel; design: dose or concentration left out as unconfirmed; details: activity remaining
ALK1(h), sequence (P37023 22-503): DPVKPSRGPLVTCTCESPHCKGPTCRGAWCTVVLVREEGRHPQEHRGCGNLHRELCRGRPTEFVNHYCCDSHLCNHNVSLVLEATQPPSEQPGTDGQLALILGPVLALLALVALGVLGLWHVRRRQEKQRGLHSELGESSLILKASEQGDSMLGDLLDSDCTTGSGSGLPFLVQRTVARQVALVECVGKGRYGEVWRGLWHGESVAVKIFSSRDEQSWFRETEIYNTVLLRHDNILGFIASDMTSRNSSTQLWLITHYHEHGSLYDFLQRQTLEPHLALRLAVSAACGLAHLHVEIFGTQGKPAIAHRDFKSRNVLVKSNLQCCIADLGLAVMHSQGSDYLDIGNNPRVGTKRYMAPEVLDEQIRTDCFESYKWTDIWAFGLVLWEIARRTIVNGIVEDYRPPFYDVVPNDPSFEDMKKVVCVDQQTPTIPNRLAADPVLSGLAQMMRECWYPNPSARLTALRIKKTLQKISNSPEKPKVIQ

ALK4(h) = ALK4(h) (Homo sapiens (Human), UniProt P36896); test: KinaseProfiler panel; design: dose or concentration left out as unconfirmed; details: activity remaining
ALK4(h), sequence (P36896 24-505): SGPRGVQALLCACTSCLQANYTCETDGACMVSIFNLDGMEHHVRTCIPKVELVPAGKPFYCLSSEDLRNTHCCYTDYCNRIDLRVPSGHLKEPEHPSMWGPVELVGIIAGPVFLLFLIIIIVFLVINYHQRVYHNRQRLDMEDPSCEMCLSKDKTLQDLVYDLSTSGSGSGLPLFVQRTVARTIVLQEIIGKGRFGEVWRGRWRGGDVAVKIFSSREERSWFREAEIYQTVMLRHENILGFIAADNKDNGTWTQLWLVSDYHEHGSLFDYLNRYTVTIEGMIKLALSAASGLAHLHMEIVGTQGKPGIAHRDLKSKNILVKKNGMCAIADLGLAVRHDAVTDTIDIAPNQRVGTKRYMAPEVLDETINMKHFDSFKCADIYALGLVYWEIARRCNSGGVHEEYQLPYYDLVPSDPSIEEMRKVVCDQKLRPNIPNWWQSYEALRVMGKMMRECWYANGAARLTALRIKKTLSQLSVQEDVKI

B-Raf(h) = B-Raf(h) (Homo sapiens (Human), UniProt P15056); test: KinaseProfiler panel; design: dose or concentration left out as unconfirmed; details: activity remaining
B-Raf(h), sequence (P15056 whole entry): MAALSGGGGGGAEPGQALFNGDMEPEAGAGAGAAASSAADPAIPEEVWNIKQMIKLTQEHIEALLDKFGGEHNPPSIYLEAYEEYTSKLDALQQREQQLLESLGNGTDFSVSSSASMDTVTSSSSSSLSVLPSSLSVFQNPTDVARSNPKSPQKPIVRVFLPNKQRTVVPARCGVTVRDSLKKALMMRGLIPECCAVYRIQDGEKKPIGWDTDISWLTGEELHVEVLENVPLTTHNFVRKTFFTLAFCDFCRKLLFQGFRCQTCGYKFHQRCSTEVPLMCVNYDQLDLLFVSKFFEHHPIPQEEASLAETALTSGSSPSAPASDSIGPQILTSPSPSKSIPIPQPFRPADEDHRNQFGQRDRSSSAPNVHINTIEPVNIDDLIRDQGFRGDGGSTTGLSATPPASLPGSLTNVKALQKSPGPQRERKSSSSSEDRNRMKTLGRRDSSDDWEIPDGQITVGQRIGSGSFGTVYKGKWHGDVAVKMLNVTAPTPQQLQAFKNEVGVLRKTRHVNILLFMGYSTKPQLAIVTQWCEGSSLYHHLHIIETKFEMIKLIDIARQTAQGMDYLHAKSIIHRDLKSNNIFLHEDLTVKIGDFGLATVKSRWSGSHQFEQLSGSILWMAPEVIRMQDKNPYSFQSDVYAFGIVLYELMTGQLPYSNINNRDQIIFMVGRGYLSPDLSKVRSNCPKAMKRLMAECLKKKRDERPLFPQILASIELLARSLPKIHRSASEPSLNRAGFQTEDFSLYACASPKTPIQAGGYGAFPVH

Bmx(h) = Bmx(h) (Homo sapiens (Human), UniProt P51813); test: KinaseProfiler panel; design: dose or concentration left out as unconfirmed; details: activity remaining
BrSK1(h) = BrSK1(h) (Homo sapiens (Human), UniProt Q8TDC3); test: KinaseProfiler panel; design: dose or concentration left out as unconfirmed; details: activity remaining
BrSK1(h), sequence (Q8TDC3 whole entry): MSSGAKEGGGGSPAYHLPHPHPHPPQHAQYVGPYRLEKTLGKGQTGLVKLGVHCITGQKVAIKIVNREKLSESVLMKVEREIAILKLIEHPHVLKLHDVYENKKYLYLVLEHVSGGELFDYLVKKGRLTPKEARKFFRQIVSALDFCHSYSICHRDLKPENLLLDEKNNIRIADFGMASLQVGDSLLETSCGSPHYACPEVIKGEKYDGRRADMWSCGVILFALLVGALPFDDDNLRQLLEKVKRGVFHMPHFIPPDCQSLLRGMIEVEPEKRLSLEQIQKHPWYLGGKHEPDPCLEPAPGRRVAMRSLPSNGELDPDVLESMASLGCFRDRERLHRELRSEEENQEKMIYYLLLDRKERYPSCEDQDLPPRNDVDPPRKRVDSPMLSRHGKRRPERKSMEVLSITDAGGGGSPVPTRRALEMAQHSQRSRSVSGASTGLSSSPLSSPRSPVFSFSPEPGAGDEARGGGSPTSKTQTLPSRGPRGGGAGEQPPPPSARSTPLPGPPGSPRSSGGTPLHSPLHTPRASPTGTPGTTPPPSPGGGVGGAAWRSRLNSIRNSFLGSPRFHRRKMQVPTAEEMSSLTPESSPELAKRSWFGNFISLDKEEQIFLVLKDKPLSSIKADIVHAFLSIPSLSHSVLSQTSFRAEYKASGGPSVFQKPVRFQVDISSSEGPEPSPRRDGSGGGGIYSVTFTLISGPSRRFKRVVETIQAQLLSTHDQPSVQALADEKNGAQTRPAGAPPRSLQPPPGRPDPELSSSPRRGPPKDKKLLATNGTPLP

CaMKIV(h) = CaMKIV(h) (Homo sapiens (Human), UniProt Q16566); test: KinaseProfiler panel; design: dose or concentration left out as unconfirmed; details: activity remaining
CK1γ3(h) = CK1γ3(h) (Homo sapiens (Human), UniProt Q9Y6M4); test: KinaseProfiler panel; design: dose or concentration left out as unconfirmed; details: activity remaining
DYRK2(h) = DYRK2(h) (Homo sapiens (Human), UniProt Q92630); test: KinaseProfiler panel; design: dose or concentration left out as unconfirmed; details: activity remaining
EphA7(h) = EphA7(h) (Homo sapiens (Human), UniProt Q15375); test: KinaseProfiler panel; design: dose or concentration left out as unconfirmed; details: activity remaining
Flt1(h) = Flt1(h) (Homo sapiens (Human), UniProt P17948); test: KinaseProfiler panel; design: dose or concentration left out as unconfirmed; details: activity remaining
Fms(h) = Fms(h) (Homo sapiens (Human), UniProt P07333); test: KinaseProfiler panel; design: dose or concentration left out as unconfirmed; details: activity remaining
GSK3α(h) = GSK3α(h) (Homo sapiens (Human), UniProt P49840); test: KinaseProfiler panel; design: dose or concentration left out as unconfirmed; details: activity remaining
HIPK2(h) = HIPK2(h) (Homo sapiens (Human), UniProt Q9H2X6); test: KinaseProfiler panel; design: dose or concentration left out as unconfirmed; details: activity remaining
ICK(h) = ICK(h) (Homo sapiens (Human), UniProt Q9UPZ9); test: KinaseProfiler panel; details: activity remaining
ICK(h), sequence (Q9UPZ9 whole entry): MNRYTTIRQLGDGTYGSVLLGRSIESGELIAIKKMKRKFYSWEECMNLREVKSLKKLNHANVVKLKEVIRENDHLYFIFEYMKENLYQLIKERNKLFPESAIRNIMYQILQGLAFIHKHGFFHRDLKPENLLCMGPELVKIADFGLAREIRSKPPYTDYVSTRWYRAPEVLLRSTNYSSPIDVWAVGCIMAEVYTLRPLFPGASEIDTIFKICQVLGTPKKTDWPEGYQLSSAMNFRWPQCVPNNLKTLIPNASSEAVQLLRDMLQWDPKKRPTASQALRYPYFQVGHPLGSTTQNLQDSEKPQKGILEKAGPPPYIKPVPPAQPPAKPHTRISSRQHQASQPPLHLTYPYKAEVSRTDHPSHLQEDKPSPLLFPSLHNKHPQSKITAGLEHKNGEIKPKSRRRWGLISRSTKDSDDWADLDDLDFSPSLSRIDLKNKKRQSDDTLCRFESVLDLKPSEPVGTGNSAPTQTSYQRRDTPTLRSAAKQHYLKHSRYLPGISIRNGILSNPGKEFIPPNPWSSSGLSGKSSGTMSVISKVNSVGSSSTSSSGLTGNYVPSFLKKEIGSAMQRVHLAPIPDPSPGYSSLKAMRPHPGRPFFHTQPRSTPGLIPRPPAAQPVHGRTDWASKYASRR

Lyn(h) = Lyn(h) (Homo sapiens (Human), UniProt P07948); test: KinaseProfiler panel; design: dose or concentration left out as unconfirmed; details: activity remaining
MARK3(h) = MARK3(h) (Homo sapiens (Human), UniProt P27448); test: KinaseProfiler panel; design: dose or concentration left out as unconfirmed; details: activity remaining
[1] = target: PI3 Kinase (p110d/p85a)(h) (Homo sapiens (Human), UniProt O00329); test: KinaseProfiler panel; design: dose or concentration left out as unconfirmed; details: activity remaining
PI3KC2a(h) = PI3KC2a(h) (Homo sapiens (Human), UniProt O00443); test: KinaseProfiler panel; design: dose or concentration left out as unconfirmed; details: activity remaining
PKAcβ(h) = PKAcβ(h) (Homo sapiens (Human), UniProt P22694); test: KinaseProfiler panel; design: dose or concentration left out as unconfirmed; details: activity remaining
PKCβI(h) = PKCβI(h) (Homo sapiens (Human), UniProt P05771); test: KinaseProfiler panel; design: dose or concentration left out as unconfirmed; details: activity remaining
Plk4(h) = Plk4(h) (Homo sapiens (Human), UniProt O00444); test: KinaseProfiler panel; design: dose or concentration left out as unconfirmed; details: activity remaining
Plk4(h), sequence (O00444 whole entry): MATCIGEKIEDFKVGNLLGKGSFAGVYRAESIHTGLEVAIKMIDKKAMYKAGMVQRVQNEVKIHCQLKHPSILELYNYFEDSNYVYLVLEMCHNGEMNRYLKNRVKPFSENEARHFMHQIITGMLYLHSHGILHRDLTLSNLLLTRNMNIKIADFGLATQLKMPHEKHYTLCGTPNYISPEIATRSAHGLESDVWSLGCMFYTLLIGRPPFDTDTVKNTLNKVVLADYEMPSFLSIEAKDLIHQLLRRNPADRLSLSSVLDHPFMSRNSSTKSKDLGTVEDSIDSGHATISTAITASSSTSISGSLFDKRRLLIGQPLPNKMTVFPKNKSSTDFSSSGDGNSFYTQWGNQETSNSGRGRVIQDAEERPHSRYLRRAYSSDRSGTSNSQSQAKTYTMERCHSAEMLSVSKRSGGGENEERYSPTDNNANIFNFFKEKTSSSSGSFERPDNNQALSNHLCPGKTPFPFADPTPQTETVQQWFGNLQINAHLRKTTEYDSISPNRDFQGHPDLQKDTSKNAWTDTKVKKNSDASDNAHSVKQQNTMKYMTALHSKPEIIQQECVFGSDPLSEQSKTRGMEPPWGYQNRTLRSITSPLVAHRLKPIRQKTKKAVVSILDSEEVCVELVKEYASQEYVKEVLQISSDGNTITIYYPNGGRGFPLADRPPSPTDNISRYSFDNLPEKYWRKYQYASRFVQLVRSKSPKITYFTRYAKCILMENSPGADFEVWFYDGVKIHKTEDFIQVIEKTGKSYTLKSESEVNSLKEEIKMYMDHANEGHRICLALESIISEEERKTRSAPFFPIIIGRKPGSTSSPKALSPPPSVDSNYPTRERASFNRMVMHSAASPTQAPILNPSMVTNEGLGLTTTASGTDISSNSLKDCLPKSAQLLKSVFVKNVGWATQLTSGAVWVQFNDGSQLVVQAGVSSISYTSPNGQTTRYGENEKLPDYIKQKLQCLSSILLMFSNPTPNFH

SAPK2a(h) = SAPK2a(h) (Homo sapiens (Human), UniProt Q16539); test: KinaseProfiler panel; design: dose or concentration left out as unconfirmed; details: activity remaining
SRPK2(h) = SRPK2(h) (Homo sapiens (Human), UniProt P78362); test: KinaseProfiler panel; design: dose or concentration left out as unconfirmed; details: activity remaining
TGFBR2(h) = TGFBR2(h) (Homo sapiens (Human), UniProt P37173); test: KinaseProfiler panel; design: dose or concentration left out as unconfirmed; details: activity remaining
ULK3(h) = ULK3(h) (Homo sapiens (Human), UniProt Q6PHR2); test: KinaseProfiler panel; design: dose or concentration left out as unconfirmed; details: activity remaining

IKKβ, sequence (O14920 whole entry): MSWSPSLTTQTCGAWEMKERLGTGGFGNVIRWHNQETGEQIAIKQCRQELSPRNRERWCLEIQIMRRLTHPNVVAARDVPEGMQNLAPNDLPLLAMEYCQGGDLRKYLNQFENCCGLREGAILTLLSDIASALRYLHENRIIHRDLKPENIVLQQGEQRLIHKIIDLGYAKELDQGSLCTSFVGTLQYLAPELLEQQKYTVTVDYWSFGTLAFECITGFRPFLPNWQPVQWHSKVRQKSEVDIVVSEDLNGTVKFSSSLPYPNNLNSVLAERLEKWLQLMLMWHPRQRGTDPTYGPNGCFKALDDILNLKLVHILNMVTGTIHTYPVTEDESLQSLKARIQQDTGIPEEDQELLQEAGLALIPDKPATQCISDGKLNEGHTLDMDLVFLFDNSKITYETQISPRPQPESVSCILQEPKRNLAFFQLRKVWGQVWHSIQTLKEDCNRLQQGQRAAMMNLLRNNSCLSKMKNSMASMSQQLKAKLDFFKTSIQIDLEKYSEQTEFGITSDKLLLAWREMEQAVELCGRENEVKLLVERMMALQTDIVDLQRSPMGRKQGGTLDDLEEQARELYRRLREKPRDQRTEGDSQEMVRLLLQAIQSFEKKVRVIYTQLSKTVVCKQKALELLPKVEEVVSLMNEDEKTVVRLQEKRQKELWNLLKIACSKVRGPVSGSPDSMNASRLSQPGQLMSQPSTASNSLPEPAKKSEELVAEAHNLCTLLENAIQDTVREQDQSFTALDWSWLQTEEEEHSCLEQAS

Cc1cc2c(-c3ccc(NC(=O)[C@H](N)CC(C)(C)C)cc3C)ccnc2[nH]1 [Compound F-90, (2R)-2-Amino-4,4-dimethyl-N-[3-methyl-4-(2-methyl-1H-pyrrolo[2,3-b]pyridin-4-yl)phenyl]pentanamide]
IC50 (IKKβ): > 3 µM
% Activity (ALK1(h)): 94%
% Activity (ALK4(h)): 94%
% Activity (B-Raf(h)): 110%
% Activity (Bmx(h)): 97%
% Activity (BrSK1(h)): 96%
% Activity (CaMKIV(h)): 99%
% Activity (CK1γ3(h)): 84%
% Activity (DYRK2(h)): 101%
% Activity (EphA7(h)): 114%
% Activity (Flt1(h)): 125%
% Activity (Fms(h)): 115%
% Activity (GSK3α(h)): 87%
% Activity (HIPK2(h)): 105%
% Activity (ICK(h)): 99%
% Activity (Lyn(h)): 80%
% Activity (MARK3(h)): 90%
% Activity [1]: 110%
% Activity (PI3KC2a(h)): 102%
% Activity (PKAcβ(h)): 12%
% Activity (PKCβI(h)): 90%
% Activity (Plk4(h)): 92%
% Activity (SAPK2a(h)): 94%
% Activity (SRPK2(h)): 93%
% Activity (TGFBR2(h)): 96%
% Activity (ULK3(h)): 95%
